Measured values as given in patent US20210403415A1, “COMPOUNDS AND METHODS TO ATTENUATE TUMOR PROGRESSION AND METASTASIS” (THE TRUSTEES OF INDIANA UNIVERSITY, priority 2018, published 2021).
Like-named read-outs stand apart in the source and are kept apart here.

Legend:
[1] = biological target: TEAD4.Yap1 interaction (Homo sapiens, UniProt Q15561); experiment: Fluorescence polarization, GST-TEAD4 with FAM-Yap60-99 peptide; format: binding; set-up: TEAD4 (217-434), TEAD4 (217-434) Cys367Ser mutant and Yap1 (Full-length) were expressed as GST-fusion proteins; made in house; host or cells: E. coli BL-21 (DE3), pGEX-6P-1; conditions: 0.5, 6, 24, 48 h incubation at 4° C., 0.1-100 μM
TEAD4.Yap1 interaction, sequence (Q15561 217-434): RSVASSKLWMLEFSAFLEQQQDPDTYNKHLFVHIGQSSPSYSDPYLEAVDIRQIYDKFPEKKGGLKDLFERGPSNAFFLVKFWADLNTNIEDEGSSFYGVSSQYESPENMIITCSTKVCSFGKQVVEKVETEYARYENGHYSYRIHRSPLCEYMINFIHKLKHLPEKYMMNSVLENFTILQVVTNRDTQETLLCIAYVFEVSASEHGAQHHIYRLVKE

[2] = biological target: T1, TEAD4 (Homo sapiens, UniProt Q15561); experiment: Covalent streptavidin pull down of myc-TEAD4 from HEK293 cell lysates; format: cell-based; set-up: expressed in transfected cells; host or cells: HEK293; conditions: higher concentrations, with compound 9
Method: HEK293 cells transfected with the myc-TEAD4 construct were grown for 48 h and then treated with DMSO or with 25 μM of compound 2 for an additional 48 h. Cells were then harvested in lysis buffer (50 mM Tris-HCl, pH 7.3, 150 mM NaCl, 0.5 mM EDTA, 1% Triton X-100, PhosSTOP phosphatase inhibitor cocktail, and EDTA-free protease inhibitors cocktail). Cell lysates containing 2 mg of protein were incubated with the indicated compounds or DMSO for 24 h. Extracts were then incubated with Dynabeads M-280 Streptavidin (Sigma-Aldrich) for 2 h at 4° C. Dynabeads were then washed and bound proteins were denatured and eluted according to the manufacturer's instructions. Relative levels of myc-TEAD4 from each complex were measured by immunoblot analysis with the anti-c-Myc antibody (1:5,000, Sigma-Aldrich).
Target sequence in this assay (Q15561 whole entry): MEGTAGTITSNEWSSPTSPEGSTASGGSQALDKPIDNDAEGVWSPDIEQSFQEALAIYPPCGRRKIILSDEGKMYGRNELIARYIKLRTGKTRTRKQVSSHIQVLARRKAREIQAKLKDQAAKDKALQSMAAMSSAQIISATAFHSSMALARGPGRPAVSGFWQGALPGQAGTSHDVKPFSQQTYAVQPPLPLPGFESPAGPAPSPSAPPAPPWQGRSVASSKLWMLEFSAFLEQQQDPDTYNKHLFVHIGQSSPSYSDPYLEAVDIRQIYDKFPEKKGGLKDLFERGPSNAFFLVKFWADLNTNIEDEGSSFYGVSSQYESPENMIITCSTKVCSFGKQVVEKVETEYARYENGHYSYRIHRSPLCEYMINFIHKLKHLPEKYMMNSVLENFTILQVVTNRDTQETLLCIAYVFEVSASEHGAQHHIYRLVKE

[3] = biological target: T2, TEAD4 Cys367Ser mutant (Homo sapiens, UniProt Q15561, C367S); experiment: Whole protein ESI mass spectrometry, adduct formation with mutant; format: binding; conditions: 10 μM mutant, 200 μM compound, 24 h at 4° C.
T2 construct: TEAD4 (217-434) Cys367Ser mutant and Yap1 (Full-length) were expressed as GST-fusion proteins; made in house; host or cells: E. coli BL-21 (DE3), pGEX-6P-1
T2 sequence (Q15561 217-434 C367S): as the sequence (Q15561 217-434) above, with C151S counted along it
Method: (§1) The samples were centrifuged at 20,000×g for […] to remove precipitants before being injected into an empty column on an Agilent 1200 liquid chromatography system (Agilent, Santa Clara, Calif.), using 80% Buffer A (H2O, 5 mM NH4OAc) and 20% Buffer B (ACN, 5 mM NH4OAc), and the masses were detected on an Agilent 6520 Accurate Mass Q-TOF.
FIG. 4A illustrates analysis by ESI mass spectrometry after 10 μM TEAD4 Cys367Ser mutant was incubated with 200 μM compound for 24 h at 4° C. FIG. 4B illustrates measurement of fluorescence polarization due to binding when increasing concentration of TEAD4 Cys367Ser mutant was mixed with 16 nM FAM-Yap60-99 peptide (mean±s.d.; n=3). FIG. 4C illustrates measurement of fluorescence polarization due to binding when TEAD4 Cys367Ser mutant was incubated with increasing concentration of compounds for 24 h at 4° C. followed by addition of FAM-Yap60-99 (mean±s.d.; n=3).

[4] = biological target: T2, TEAD4 Cys367Ser mutant; experiment: Fluorescence polarization, GST-TEAD4 Cys367Ser mutant with FAM-Yap60-99 peptide; format: binding; conditions: 24 h at 4° C.
Method: GST-TEAD4, GST-TEAD4 Cys367Ser mutant or HIS-TEAD2 interaction with Yap1 was investigated using a fluorescently-labeled peptide (FAM-Yap60-99), consisting of FAM-labeled TEAD-binding peptide fragment of Yap1 (FAM-[…] TVPMCLRKLPASFCKPP), which has a disulfide bridge (American Peptide, Sunnyvale, Calif.). Addition of FAM-Yap60-99 to the TEAD was followed by measurement of changes in polarization. 40 μL of 125 nM GST-TEAD4 WT or GST-TEAD4 Cys367Ser in assay buffer (PBS with 0.01% v/v Triton-X100) or 40 μL of 64 nM HIS-TEAD2 was added to a 384-well black polystyrene plate (Cat. No. 262260; Nunc, Roskilde, Denmark) and incubated with 5 μL of […] serially diluted compounds in assay buffer supplemented with 20% v/v DMSO for 24 h at 4° C. Finally, 5 μL of 160 nM FAM-Yap60-99 peptide was added, the plate centrifuged, and the polarization was measured on an Envision Multilabel Plate Reader (PerkinElmer, Waltham, Mass.) using a filter set with excitation and emission wavelengths of 485 and 535 nm, respectively. Percent inhibition was calculated as relative to a minimum inhibition control, which is without compound, and a maximum inhibition control, which is without a TEAD.

[5] = biological target: T1, TEAD4; experiment: Whole protein ESI mass spectrometry, adduct formation; format: binding; set-up: TEAD4 (217-434), TEAD4 (217-434) Cys367Ser mutant and Yap1 (Full-length) were expressed as GST-fusion proteins; GST (N, cleaved yes); made in house; host or cells: E. coli BL-21 (DE3), pGEX-6P-1; conditions: for covalent adduct formation with TEAD4: 10 μM TEAD4, 200 μM compound, 24 h at 4° C.
Method: as §1
Target sequence in this assay (Q15561 217-434): as the sequence (Q15561 217-434) above
It was determined whether a covalent bond formed between inventive compounds and TEAD4. […] The covalent adduct formation by compound 2 was relatively fast (FIG. 3G), reaching nearly 100% adduct formation after 30 min incubation with TEAD4. Because the rate of inhibition developed over a longer timescale (FIG. 3C), compound 2 is proposed to induce a slow conformational change in TEAD4 that prevents its interaction with Yap1. To rule out the possibility that compound 2 induces slow aggregation of TEAD4, and not the proposed slow conformational change, GST-TEAD4 was incubated with DMSO compound 2 for 24 h at 4° C., followed by injection into an SEC column (FIG. 3H). […] A slight increase in dimer formation for the TEAD4 sample incubated with compound 2 occurred compared to the sample incubated with DMSO. […] Furthermore, it is highly unlikely that Cys-367 oxidation was responsible for the lack of 100% inhibition at longer times since it has been shown that covalent bond formation is rapid and complete within less than an hour.

Row | SMILES | kinact ([1]; read-out: maximum rate of inactivation (kinact) (converted)) | competition with compound 9 for binding to TEAD4 [2] | adduct formation with TEAD4 Cys367Ser mutant [3] | inhibition of TEAD4 Cys367Ser mutant binding to the peptide [4] | covalent adduct formation with TEAD4 [5] | adduct formation with TEAD4 ([5]; after 30 min incubation) | kinact ([1]; read-out: rate of inactivation kinact (converted))
1 | O=C(CCl)c1ccccc1Nc1cccc(C(F)(F)F)c1 [Compound 2, 2-chloro-1-(2-((3-(trifluoromethyl)phenyl)amino)phenyl)ethanone] | 1.06e-05 s⁻¹ | compete with compound 9 for binding to TEAD4 | failed to form an adduct | did not inhibit | a peak at 26229 was observed, corresponding to the TEAD4.compound 2 adduct | ~100% | 
2 | O=C(CCl)c1ncccc1Nc1cccc(C(F)(F)F)c1 [Compound 5, 2-chloro-1-(3-((3-(trifluoromethyl)phenyl)amino)pyridin-2-yl)ethanone] |  | compete with compound 9 for binding to TEAD4 | formed an adduct | also inhibited the TEAD4 Cys367Ser mutant | formed more than one covalent complex |  | 1.36e-05 s⁻¹
